One may read the IC50 as the concentration needed to halve the response being measured. Higher therefore signals a need for much substance.

“And” between values parts separate entries of the source, which are not always exact repeats. Identical values can stand only once.

This is an account of results in ChEMBL document CHEMBL5604062, “ASAP - ZIKV NS2B-NS3 protease fluorescence dose response” (2024).

The target in this assay is Nonstructural protein 3 (Zika virus, UniProt A0A024AXB9). Description: Functional biochemical assay to identify treatments for viral infectious disease that targets Zika NS2B-NS3 protease. Utilizing a direct enzyme activity measurement method, reading the fluorescence intensity is used to characterize the relative potency of inhibitors as IC50. The arrangement: species or system PRVABC59.
Sequence of Nonstructural protein 3 (A0A024AXB9 whole entry): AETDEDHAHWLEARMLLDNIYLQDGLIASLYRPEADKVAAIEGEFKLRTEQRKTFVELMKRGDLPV
The compound `OC1(c2ccccc2)CCN(Cc2c[nH]c3ccccc23)CC1` registered a half-inhibitory concentration (IC50) of over 99.5 µM. With `CCCC[C@H](NC(C)=O)C(=O)N[C@H](C(=O)NCc1ccc(C(N)=O)cc1)c1ccc(OCc2ccccc2)cc1`, the IC50 is over 99.5 µM. With `CNC(=O)c1cc(Cl)ccc1NS(=O)(=O)c1cccc(Oc2ccccc2)c1`, the half-maximal inhibitory concentration (IC50) was over 99.5 µM.

In turn, `CCOc1cc(COc2cccnc2F)nc(N2CCNCC2)n1` yielded an IC50 of over 99.5 µM. In turn, `C[C@@H](NC(=O)c1cc(Cl)ccc1NS(=O)(=O)c1ccc(Oc2ccccc2Cl)cc1)[C@H]1CCCO1` gave an IC50 of over 99.5 µM.

Compound `CCc1cc(C)nc(C2CCN(Cc3c[nH]c4ccccc34)CC2)n1` yielded a concentration for half-maximal inhibition (IC50) of 59.4 µM. To `O=C(c1cc(Cl)ccc1NS(=O)(=O)c1ccc(Oc2ccccc2Cl)cc1)N1CC[C@H](CO)C1` belongs over 99.5 µM. In the case of `Cn1nccc1C1CCN(Cc2c[nH]c3ccccc23)CC1`, the 50% inhibitory concentration (IC50) is over 99.5 µM.

For the compound `O=S(=O)(Nc1ccc(Oc2ccccc2Cl)cc1)c1c[nH]c2ccc(Cl)cc12`, the IC50 is over 99.5 µM. `Cc1ccc(CNC(=O)c2cc(Cl)ccc2NS(=O)(=O)c2ccc(Oc3ccccc3Cl)cc2)s1` yielded an IC50 of over 99.5 µM. `CC[C@H]1CCN(C(=O)c2cc(Cl)ccc2NS(=O)(=O)c2ccc(Oc3ccccc3Cl)cc2)C1`: the 50% inhibitory concentration (IC50) is over 99.5 µM. `CCCC[C@@H](NC(=O)OC(C)(C)C)C(=O)N[C@@H](C(=O)NCc1ccc(CN)cc1)c1ccc(OCc2ccccc2)cc1` gave an IC50 of 25.6 µM. That is a double-digit micromolar value. The compound `CNc1cc(COc2cccnc2F)nc(N2CCNCC2)n1` gave a 50% inhibitory concentration (IC50) of over 99.5 µM. To `CCCC[C@H](N)C(=O)N[C@H](C(=O)NCc1ccc(C(N)=O)cc1)c1ccc(OCc2ccccc2)cc1` belongs 81 µM; to `CCC1CCN(Cc2c[nH]c3ccccc23)CC1`, over 99.5 µM. As to `c1ccc(COC2CCN(Cc3c[nH]c4ccccc34)CC2)cc1`, the IC50 was over 99.5 µM. On to `CCc1ccc(NS(=O)(=O)c2ccc(Oc3ccccc3Cl)cc2)c(C(=O)NC)c1`, for which the IC50 was over 99.5 µM. In the case of `CC(C)(C)OC(=O)Cn1ccnc(N2CC[C@@H](CO)C2)c1=O` it was over 99.5 µM. As for `C[C@H]1COCCN1C(=O)c1cc(Cl)ccc1NS(=O)(=O)c1ccc(Oc2ccccc2Cl)cc1`, the IC50 was over 99.5 µM. `CNC(=O)c1cc(Cl)c(OC)cc1NS(=O)(=O)c1ccc(Oc2ccccc2Cl)cc1`: the IC50 came to 53.4 µM. `CCCC[C@H](N)C(=O)N[C@@H](C(=O)NCc1ccc(C(N)=O)cc1)c1ccc(OCc2ccccc2)cc1`: the half-inhibitory concentration (IC50) was over 99.5 µM.

Compound `COC[C@@H](C)CNC(=O)c1cc(Cl)ccc1NS(=O)(=O)c1ccc(Oc2ccccc2Cl)cc1` showed an IC50 of over 99.5 µM. `NC[C@H]1C[C@@H](NC(=O)[C@@H](NC(=O)OCc2ccccc2)c2ccc(OCc3ccccc3)cc2)C1` yielded an IC50 of 85.2 µM. The compound `O=C(NC[C@H]1CCCO1)c1cc(Cl)ccc1NS(=O)(=O)c1ccc(Oc2ccccc2Cl)cc1` showed a concentration for half-maximal inhibition (IC50) of over 99.5 µM. In the case of `O[C@H]1CCCN(Cc2c[nH]c3ccccc23)C1` it was over 99.5 µM; in that of `CC(C)Oc1cc(COc2cccnc2F)nc(N2CCNCC2)n1`, over 99.5 µM; in that of `CCCCCC(=O)N[C@H](C(=O)NCc1cccc(CN)c1)C1CCCCC1`, over 99.5 µM. For the compound `NC(=O)c1ccccc1NS(=O)(=O)c1ccc(Oc2ccccc2Cl)cc1`, the IC50 was over 99.5 µM.

`NCc1cccc(NC(=O)c2cccc(NC(=O)OCc3ccccc3)n2)c1`: the half-maximal inhibitory concentration (IC50) is over 99.5 µM.

The compound `c1ccc2c(CN3CCC(c4ccn[nH]4)CC3)c[nH]c2c1` yielded an IC50 of 66.2 µM. This lies in the double-digit micromolar range. `CCCN(C)C(=O)c1cc(Cl)ccc1NS(=O)(=O)c1ccc(Oc2ccccc2Cl)cc1`: the half-inhibitory concentration (IC50) is over 99.5 µM. For `CCCCCNC(=O)c1cc(Cl)ccc1NS(=O)(=O)c1ccc(Oc2ccccc2Cl)cc1`, the half-inhibitory concentration (IC50) was over 99.5 µM.

In the case of `CCn1ccnc(N2C[C@@H](O)[C@H](c3c[nH]c4ccccc34)C2)c1=O`, the IC50 is over 99.5 µM. Compound `O=C(N[C@@H](C(=O)NC1CNC1)c1ccc(OCc2ccccc2)cc1)OCc1ccccc1` displayed an IC50 of over 99.5 µM. To `NC[C@H]1CCN1C(=O)[C@@H](NC(=O)OCc1ccccc1)c1ccc(OCc2ccccc2)cc1` belongs over 99.5 µM; to `CC(C)Oc1ccc(S(=O)(=O)Nc2ccc(Cl)cc2C(=O)O)cc1`, over 99.5 µM. Turning to `NCc1cccc(NC(=O)[C@@H](NC(=O)OCc2ccccc2)C2CCCCC2)c1`, the 50% inhibitory concentration (IC50) was over 99.5 µM. For `COc1cc(C(=O)Nc2cnc3ccccc3c2)nc(N2CCNCC2)n1`, the half-maximal inhibitory concentration (IC50) was over 99.5 µM. `OCCOc1cc(COc2cccnc2F)nc(N2CCNCC2)n1` returned a half-maximal inhibitory concentration (IC50) of over 99.5 µM. To `CC(C)(CO)CN1CC[C@H](c2c[nH]c3ccccc23)C1` belongs over 99.5 µM. In the case of `NCc1cccc(NC(=O)[C@@H](NC(=O)OCc2ccccc2)c2ccc(F)cc2F)c1`, the IC50 is over 99.5 µM. `CCn1c(=O)c(N2CC[C@@H](CO)C2)nc2ccccc21` gave an IC50 of over 99.5 µM.

In turn, `CC(C)c1ccc([C@@H](NC(=O)OCc2ccccc2)C(=O)Nc2cccc(CN)c2)cc1` registered an IC50 of 87.7 µM. Compound `O=C(N[C@@H](C(=O)NC1CCNCC1)c1ccc(OCc2ccccc2)cc1)OCc1ccccc1` came in with an IC50 of over 99.5 µM. In the case of `C[C@@H](N)c1cccc(NC(=O)[C@@H](NC(=O)OCc2ccccc2)c2ccc(OCc3ccccc3)cc2)c1` it was 33.6 µM. The compound `c1cnc(C2CCN(Cc3c[nH]c4ccccc34)CC2)nc1` showed a half-inhibitory concentration (IC50) of 50.6 µM. On to `COc1cccc(C2CCN(Cc3c[nH]c4ccccc34)CC2)c1`, for which the IC50 amounted to 64.3 µM. This IC50 and that of the compound before are within 1.5-fold of each other. In the case of `c1ccc2c(CN3CCC(c4cscn4)CC3)c[nH]c2c1` it was 22.1 µM; in that of `NCc1cccc(NC(=O)[C@H]2c3ccccc3CCN2C(=O)OCc2ccccc2)c1`, over 99.5 µM.

Take `NC(=O)[C@H]1CCCN(Cc2c[nH]c3ccccc23)C1`: the 50% inhibitory concentration (IC50) is over 99.5 µM.

Take `NCc1cccc(NC(=O)[C@@H](NC(=O)OCc2ccccc2)C(C2CCC2)C2CCC2)c1`: the IC50 was 66.3 µM and 82.1 µM. Compound `c1cc(CN2CCC(c3c[nH]c4cccnc34)CC2)c2[nH]ncc2c1` came in with a 50% inhibitory concentration (IC50) of over 99.5 µM. Turning to `O=S(=O)(Nc1ccc(Cl)cc1)c1ccc(Oc2ccccc2Cl)cc1`, the IC50 is over 99.5 µM. To `NCc1cccc(NC(=O)[C@H]2CCCN(C(=O)OCc3ccccc3)C2)c1` belongs over 99.5 µM. Take `OC1CCN(Cc2c[nH]c3ccccc23)CC1`: the IC50 is over 99.5 µM.

Turning to `O=C(Nc1ccc(Cl)cc1C(=O)O)c1ccc(Oc2ccccc2Cl)cc1`, the half-maximal inhibitory concentration (IC50) was over 99.5 µM. Consider `c1ccc2c(CN3CCC(c4cnco4)CC3)c[nH]c2c1`, for which 56.1 µM corresponded to half-maximal inhibition (IC50). That is a double-digit micromolar value. `CCn1ccnc(N2CC[C@H](c3ccc(F)cc3)C2)c1=O`: the 50% inhibitory concentration (IC50) was over 99.5 µM.

The compound `c1ccc2sc(C3CCN(Cc4c[nH]c5ccccc45)CC3)nc2c1` showed an IC50 of 9.89 µM. `Fc1ncccc1OCc1cc(Cl)nc(N2CCNCC2)n1`: the IC50 was over 99.5 µM. Turning to `NCc1cccc(NC(=O)[C@@H](NC(=O)OCc2ccccc2)c2cc(F)cc(F)c2)c1`, the IC50 was over 99.5 µM.

In turn, `CC(C)CNC(=O)c1cc(Cl)ccc1NS(=O)(=O)c1ccc(Oc2ccccc2Cl)cc1` registered an IC50 of 34.3 µM. This lies in the double-digit micromolar range. As to `CC(=O)N[C@@H](C(=O)Nc1cccc(CN)c1)c1ccc(OCc2ccccc2)cc1`, the concentration for half-maximal inhibition (IC50) was over 99.5 µM. In the case of `O[C@@H]1CNC[C@H]1c1c[nH]c2ccccc12` it was over 99.5 µM. To `NCc1cccc(NC(=O)[C@H]2c3ccc(OCc4ccccc4)cc3CCN2C(=O)OCc2ccccc2)c1` belongs 17.3 µM; to `CC(C)(C)Oc1ccc(S(=O)(=O)Nc2ccc(Cl)cc2C(=O)O)cc1`, over 99.5 µM. For the compound `CCOc1ccc([C@@H](NC(=O)OCc2ccccc2)C(=O)Nc2cccc(CN)c2)cc1`, the IC50 was over 99.5 µM.

`O=C(c1cc(Cl)ccc1NS(=O)(=O)c1ccc(Oc2ccccc2Cl)cc1)N1CCC[C@@H]1CO` returned an IC50 of over 99.5 µM. The compound `NCc1cccc(NC(=O)[C@@H](NC(=O)OCc2ccccc2)c2cccc(F)c2F)c1` registered an IC50 of over 99.5 µM. With `O=c1c(N2CC[C@H](CO)C2)nccn1C1CC1`, the IC50 was over 99.5 µM. `c1cc(C2CCN(Cc3c[nH]c4ccccc34)CC2)c2ccncc2c1` registered an IC50 of 24.6 µM. This counts as double-digit micromolar. With `O=C(O)c1cc(Cl)ccc1NCc1ccc(Oc2ccccc2Cl)cc1`, the IC50 is over 99.5 µM. In the case of `CN(CCS(N)(=O)=O)C(=O)c1cc(Cl)ccc1NS(=O)(=O)c1ccc(Oc2ccccc2Cl)cc1` it was over 99.5 µM; in that of `COc1ccc(S(=O)(=O)Nc2ccc(Cl)cc2C(=O)O)cc1`, over 99.5 µM; in that of `O=C(c1cc(Cl)ccc1NS(=O)(=O)c1ccc(Oc2ccccc2Cl)cc1)N1CCC[C@H](O)C1`, over 99.5 µM. The compound `CCn1ccnc(N[C@@H](Cc2c[nH]c3ccccc23)C(N)=O)c1=O` gave an IC50 of over 99.5 µM. `NCc1cccc(NC(=O)[C@H]2COC3(CCOCC3)N2C(=O)OCc2ccccc2)c1` displayed an IC50 of over 99.5 µM.

`CNC(=O)c1cc(Cl)c(F)cc1NS(=O)(=O)c1ccc(Oc2ccccc2Cl)cc1` returned a half-maximal inhibitory concentration (IC50) of 37.9 µM. As for `NCc1cccc(NC(=O)[C@@H](NC(=O)OCc2ccccc2)c2ccc(Cl)cc2)c1`, the IC50 was over 99.5 µM. To `FC(F)(F)c1ccccc1C1CCN(Cc2c[nH]c3ccccc23)CC1` belongs over 99.5 µM; to `c1ccc2oc(C3CCN(Cc4c[nH]c5ccccc45)CC3)nc2c1`, 60.6 µM; to `NCc1cccc(NC(=O)Cc2ccc(OCc3ccccc3)cc2)c1`, over 99.5 µM.

Regarding `NCc1cccc(NC(=O)[C@@H](Cc2c[nH]c3ccccc23)NC(=O)OCc2ccccc2)c1`, the half-inhibitory concentration (IC50) is over 99.5 µM. Turning to `c1ccc2c(CN3CCC(n4cccn4)CC3)c[nH]c2c1`, the IC50 was over 99.5 µM.

In turn, `NS(=O)(=O)c1ccc(C2CCN(Cc3c[nH]c4ccccc34)CC2)cc1` came in with an IC50 of 26.4 µM. In the case of `O=C(N[C@@H](C(=O)N[C@H]1CCCNC1)c1ccc(OCc2ccccc2)cc1)OCc1ccccc1` it was over 99.5 µM.

Regarding `CC[C@H]1CCN(c2nccn(CC)c2=O)C1`, the IC50 is over 99.5 µM. Take `O=C(O)c1cc(Cl)ccc1NS(=O)(=O)c1ccc(Oc2ccccc2Cl)cc1`: 35.1 µM corresponded to half-maximal inhibition (IC50).

As to `CCn1ccnc(N(C)[C@@H](CO)Cc2c[nH]c3ccccc23)c1=O`, the IC50 was over 99.5 µM. In the case of `O=C1NCc2ccccc2C12CCN(Cc1cc3ccc(F)cc3[nH]1)CC2` it was over 99.5 µM; in that of `NCc1ccc2c(c1)N(C(=O)[C@@H](NC(=O)OCc1ccccc1)c1ccc(OCc3ccccc3)cc1)CC2`, 12.3 µM; in that of `c1ccc2c(CN3CCCCC3)c[nH]c2c1`, over 99.5 µM.
